Assay results published in patent US10392368B2, “Pyrazolo and triazolo bicyclic compounds as JAK kinase inhibitors” (THERAVANCE BIOPHARMA R&D IP, LLC, priority 2017, dated 2019).
Read-outs that look alike come from different tables or passages of the source.

Columns and labels:
[1] = molecular target: T1, JAK1 (Homo sapiens, UniProt P23458); test: Biochemical JAK1 kinase assay (LanthaScreen); conditions: for Ki: read-out: JAK 1 (pKi) (converted)
T1 construct: GST; purchased Life Technologies
Outline: (§1)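 Recombinant GST-tagged JAK enzymes with GFP-STAT1 peptide substrate in 50 mM HEPES pH 7.5, 10 mM MgCl2, 1 mM EGTA, 0.01% Brij-35; compounds pre-incubated 1 h, then ATP added, 1 h reaction at ambient temperature. TR-FRET (Tb-anti-pSTAT1 pTyr701, 520/495 nm) after EDTA stop; IC50 by 4-parameter fit, converted to pKi via Cheng-Prusoff.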

[2] = molecular target: T2, JAK2 (Homo sapiens, UniProt O60674); test: Biochemical JAK2 kinase assay (LanthaScreen); conditions: for Ki: read-out: JAK 2 (pKi) (converted)
T2 construct: GST; purchased Life Technologies
Outline: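 GST-tagged recombinant JAK2 pre-incubated 1 h at ambient temperature with compound and GFP-STAT1 peptide in HEPES pH 7.5/MgCl2 buffer, then ATP added for a 1 h reaction with 1% DMSO. TR-FRET read after EDTA and Tb-anti-pSTAT1 (pTyr701) addition; IC50 from 4-parameter fit, converted to pKi by Cheng-Prusoff.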

[3] = molecular target: T3, Tyk2 (Homo sapiens, UniProt P29597); test: Biochemical Tyk2 kinase assay (LanthaScreen); conditions: for Ki: read-out: Tyk 2 (pKi) (converted)
T3 construct: GST; purchased Life Technologies
Outline: as §1

[4] = tested on: IL-2 stimulated pSTAT5 in Tall-1 T cells; test: Cellular JAK3 potency assay: inhibition of IL-2 stimulated pSTAT5 in Tall-1 T cells; assay type: cell-based, human; conditions: for IC50: Homo sapiens, read-out: Tall-1 (pIC50) (converted)
Outline: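 In human Tall-1 T cells, IL-2 (300 ng/ml final, 30 min) drives STAT5 phosphorylation after a 1 h compound pretreatment. Lysates are assayed for pSTAT5 by AlphaLisa, and IC50 derived from signal versus concentration is expressed as pIC50.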

[5] = molecular target: T4, JAK3 (Homo sapiens, UniProt P52333); test: Biochemical JAK3 kinase assay (LanthaScreen); set-up: GST; purchased Life Technologies; conditions: for Ki: read-out: JAK 3 (pKi) (converted)
T4 sequence (P52333 1-1124): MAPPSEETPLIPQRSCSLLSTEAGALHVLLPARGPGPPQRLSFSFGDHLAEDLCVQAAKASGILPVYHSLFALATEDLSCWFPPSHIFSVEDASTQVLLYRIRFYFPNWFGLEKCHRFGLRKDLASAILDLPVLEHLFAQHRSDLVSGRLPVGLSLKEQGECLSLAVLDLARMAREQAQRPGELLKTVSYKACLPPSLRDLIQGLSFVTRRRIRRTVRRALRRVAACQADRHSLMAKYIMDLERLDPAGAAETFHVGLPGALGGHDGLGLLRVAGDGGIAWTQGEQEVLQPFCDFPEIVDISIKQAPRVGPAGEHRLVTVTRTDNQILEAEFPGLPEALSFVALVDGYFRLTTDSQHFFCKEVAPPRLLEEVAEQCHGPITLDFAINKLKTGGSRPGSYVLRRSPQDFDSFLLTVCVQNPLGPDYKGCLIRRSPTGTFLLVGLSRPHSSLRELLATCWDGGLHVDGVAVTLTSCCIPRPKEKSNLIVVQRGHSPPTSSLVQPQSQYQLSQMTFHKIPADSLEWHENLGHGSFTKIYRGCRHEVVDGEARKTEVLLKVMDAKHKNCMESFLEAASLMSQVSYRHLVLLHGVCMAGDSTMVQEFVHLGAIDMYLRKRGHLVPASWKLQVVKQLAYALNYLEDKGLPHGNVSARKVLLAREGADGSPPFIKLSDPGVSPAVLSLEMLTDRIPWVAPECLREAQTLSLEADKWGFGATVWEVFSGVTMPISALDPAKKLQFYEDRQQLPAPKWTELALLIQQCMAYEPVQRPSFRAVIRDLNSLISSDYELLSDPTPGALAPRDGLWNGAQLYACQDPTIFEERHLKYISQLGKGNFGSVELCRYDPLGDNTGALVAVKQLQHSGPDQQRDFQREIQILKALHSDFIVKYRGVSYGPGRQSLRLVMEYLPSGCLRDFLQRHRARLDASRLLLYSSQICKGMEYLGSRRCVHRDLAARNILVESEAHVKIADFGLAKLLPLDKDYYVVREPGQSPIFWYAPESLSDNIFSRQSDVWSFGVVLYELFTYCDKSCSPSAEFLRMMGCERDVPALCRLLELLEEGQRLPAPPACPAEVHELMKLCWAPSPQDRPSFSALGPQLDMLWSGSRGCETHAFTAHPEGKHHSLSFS
Outline: as §1

[6] = IL-2 stimulated pSTAT5, Tall-1 T cells
[7] = selectivity JAK3 over JAK1, difference of pKi
[8] = IL-2 stimulated pSTAT5 in Tall-1 T cells
[9] = selectivity: difference of pKi JAK3 and pKi JAK1
[10] = TALL-1, IL-2 stimulated pSTAT5 in Tall-1 T cells
[11] = TALL-1, IL-2 stimulated pSTAT5, Tall-1 T cells

T1 sequence (P23458 whole entry): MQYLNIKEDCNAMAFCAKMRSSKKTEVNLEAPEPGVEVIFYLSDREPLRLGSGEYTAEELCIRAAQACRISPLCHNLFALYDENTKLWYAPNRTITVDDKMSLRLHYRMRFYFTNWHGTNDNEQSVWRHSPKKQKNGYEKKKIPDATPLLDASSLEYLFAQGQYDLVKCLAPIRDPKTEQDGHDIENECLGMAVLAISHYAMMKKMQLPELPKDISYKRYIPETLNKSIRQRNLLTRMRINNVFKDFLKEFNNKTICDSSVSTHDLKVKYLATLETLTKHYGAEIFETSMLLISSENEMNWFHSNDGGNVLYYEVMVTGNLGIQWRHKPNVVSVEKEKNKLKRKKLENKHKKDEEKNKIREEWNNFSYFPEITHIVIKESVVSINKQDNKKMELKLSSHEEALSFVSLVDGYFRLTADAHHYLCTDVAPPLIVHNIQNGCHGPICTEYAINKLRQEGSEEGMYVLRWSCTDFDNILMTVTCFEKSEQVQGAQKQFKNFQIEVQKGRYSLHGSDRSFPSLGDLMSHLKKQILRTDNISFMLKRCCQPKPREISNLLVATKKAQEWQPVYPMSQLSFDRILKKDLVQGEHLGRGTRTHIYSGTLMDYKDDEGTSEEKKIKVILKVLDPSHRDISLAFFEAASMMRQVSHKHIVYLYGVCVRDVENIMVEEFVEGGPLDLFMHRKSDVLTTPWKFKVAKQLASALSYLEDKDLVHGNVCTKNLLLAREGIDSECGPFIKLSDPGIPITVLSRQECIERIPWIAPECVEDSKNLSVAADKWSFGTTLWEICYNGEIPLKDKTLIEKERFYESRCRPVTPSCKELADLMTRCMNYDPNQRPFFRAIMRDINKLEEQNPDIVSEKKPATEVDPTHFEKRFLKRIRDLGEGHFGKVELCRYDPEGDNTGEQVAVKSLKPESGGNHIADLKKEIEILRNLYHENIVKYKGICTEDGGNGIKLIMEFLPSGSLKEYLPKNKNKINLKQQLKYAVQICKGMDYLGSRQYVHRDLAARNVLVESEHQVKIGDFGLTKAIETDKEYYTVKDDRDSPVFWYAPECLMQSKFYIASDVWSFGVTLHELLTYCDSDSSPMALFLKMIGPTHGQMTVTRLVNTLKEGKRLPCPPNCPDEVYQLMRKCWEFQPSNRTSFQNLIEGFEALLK
T3 sequence (P29597 whole entry): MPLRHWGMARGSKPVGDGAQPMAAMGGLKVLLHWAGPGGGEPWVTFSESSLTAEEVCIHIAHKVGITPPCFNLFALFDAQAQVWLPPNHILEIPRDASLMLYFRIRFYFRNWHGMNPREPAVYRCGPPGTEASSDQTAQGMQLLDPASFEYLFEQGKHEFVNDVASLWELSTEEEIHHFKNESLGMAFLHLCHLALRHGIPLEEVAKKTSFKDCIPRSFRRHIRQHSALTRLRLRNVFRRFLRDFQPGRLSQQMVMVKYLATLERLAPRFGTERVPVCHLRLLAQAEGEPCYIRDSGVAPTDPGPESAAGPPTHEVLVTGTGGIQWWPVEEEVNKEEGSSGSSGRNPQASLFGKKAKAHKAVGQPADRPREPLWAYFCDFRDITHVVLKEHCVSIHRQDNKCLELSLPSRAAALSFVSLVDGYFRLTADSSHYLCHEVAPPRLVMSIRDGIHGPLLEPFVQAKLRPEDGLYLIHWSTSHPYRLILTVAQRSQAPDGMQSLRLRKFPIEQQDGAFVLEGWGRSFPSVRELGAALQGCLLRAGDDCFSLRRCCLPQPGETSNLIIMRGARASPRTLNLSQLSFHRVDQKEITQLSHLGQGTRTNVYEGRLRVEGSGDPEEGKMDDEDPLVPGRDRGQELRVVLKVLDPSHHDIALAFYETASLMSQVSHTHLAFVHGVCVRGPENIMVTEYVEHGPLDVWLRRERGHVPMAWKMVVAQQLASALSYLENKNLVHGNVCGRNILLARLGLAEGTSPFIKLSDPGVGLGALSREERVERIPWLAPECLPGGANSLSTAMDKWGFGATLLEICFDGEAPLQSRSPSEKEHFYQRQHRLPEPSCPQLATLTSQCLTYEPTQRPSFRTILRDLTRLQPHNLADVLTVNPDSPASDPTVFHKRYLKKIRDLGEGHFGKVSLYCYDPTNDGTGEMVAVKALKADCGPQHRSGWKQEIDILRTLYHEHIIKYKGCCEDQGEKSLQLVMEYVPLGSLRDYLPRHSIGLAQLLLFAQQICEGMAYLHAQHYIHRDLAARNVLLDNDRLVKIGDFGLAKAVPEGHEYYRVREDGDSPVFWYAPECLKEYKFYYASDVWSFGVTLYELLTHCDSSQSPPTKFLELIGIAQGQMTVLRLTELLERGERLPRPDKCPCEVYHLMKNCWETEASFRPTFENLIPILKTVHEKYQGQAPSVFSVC
T2 sequence (O60674 whole entry): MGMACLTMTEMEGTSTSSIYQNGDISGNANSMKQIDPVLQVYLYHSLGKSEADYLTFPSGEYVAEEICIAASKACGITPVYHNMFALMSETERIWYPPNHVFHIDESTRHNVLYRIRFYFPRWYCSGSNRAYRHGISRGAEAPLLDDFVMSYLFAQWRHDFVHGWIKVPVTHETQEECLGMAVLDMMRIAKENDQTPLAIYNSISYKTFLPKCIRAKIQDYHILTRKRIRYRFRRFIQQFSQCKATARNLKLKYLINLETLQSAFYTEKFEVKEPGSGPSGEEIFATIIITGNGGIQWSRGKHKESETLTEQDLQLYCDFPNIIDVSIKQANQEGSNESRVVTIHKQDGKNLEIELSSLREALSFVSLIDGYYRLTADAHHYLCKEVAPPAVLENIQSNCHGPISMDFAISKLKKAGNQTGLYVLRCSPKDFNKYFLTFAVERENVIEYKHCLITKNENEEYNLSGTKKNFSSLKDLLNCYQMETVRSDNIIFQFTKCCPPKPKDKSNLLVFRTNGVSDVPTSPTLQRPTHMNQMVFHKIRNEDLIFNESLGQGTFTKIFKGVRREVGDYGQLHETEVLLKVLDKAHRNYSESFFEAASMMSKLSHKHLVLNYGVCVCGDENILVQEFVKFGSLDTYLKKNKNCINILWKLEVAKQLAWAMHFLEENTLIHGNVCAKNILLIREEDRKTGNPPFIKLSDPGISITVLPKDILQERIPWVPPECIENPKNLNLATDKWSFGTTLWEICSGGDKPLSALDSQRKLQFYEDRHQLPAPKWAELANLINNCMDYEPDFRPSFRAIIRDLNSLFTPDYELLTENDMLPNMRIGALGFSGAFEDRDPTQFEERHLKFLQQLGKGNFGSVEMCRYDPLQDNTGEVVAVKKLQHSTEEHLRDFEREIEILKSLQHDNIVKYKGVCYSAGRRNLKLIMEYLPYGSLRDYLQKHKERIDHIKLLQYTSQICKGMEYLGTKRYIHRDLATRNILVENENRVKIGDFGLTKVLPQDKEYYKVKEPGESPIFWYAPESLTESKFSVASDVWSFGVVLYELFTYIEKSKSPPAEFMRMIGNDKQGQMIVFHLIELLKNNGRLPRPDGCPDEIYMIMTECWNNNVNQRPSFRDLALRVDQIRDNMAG

| SMILES | JAK 1 (pKi) [1] | JAK 2 (pKi) [2] | Tyk 2 (pKi) [3] | Tall-1 (pIC50) [4, 6] | JAK 3 (pKi) [5] | JAK3 (pKi)-JAK1 (pKi) [5, 7] | Tall-1 (pIC50) [4, 8] | JAK3 (pKi)-JAK1 (pKi) [5, 9] | Ki [1] | Ki [2] | Ki [3] | IC50 [4, 10] | Ki [5] | IC50 [4, 11] |
| --- | --- | --- | --- | --- | --- | --- | --- | --- | --- | --- | --- | --- | --- | --- |
| C=CC(=O)N1CCC(C)(Nc2nc(-c3ccc(O)c(Cl)c3)cc3[nH]ncc23)CC1 [Compound 7-14] | E (a pKi value of 7 or below (Ki of 100 nM or above)) | D (a pKi value between 7 and 8 (Ki between 100 nM and 10 nM)) | E (a pKi value of 7 or below (Ki of 100 nM or above)) | A (a pIC50 value≥7.5 (IC50≤32 nM)) | B (a pKi value between 9 and 10 (Ki between 1 nM and 0.1 nM)) | B (a value of 2.3 to 3) | – | – | – | – | – | – | – | – |
| C=CC(=O)N1CC(CC)(COc2nc(-c3ccc(O)c(F)c3)cc3[nH]ncc23)C1 [Compound 3-101] | E (a pKi value of 7 or below (Ki of 100 nM or above)) | D (a pKi value between 7 and 8 (Ki between 100 nM and 10 nM)) | E (a pKi value of 7 or below (Ki of 100 nM or above)) | – | A (a pKi value≥10 (Ki≤0.1 nM)) | – | A (a pIC50 value≥7.5 (IC50≤32 nM)) | A (a value of 3 or above) | – | – | – | – | – | – |
| CN(C)C/C=C/C(=O)N1CC(C(C)(C)Oc2cc(-c3ccc(O)c(F)c3)cc3[nH]ncc23)C1 [Compound 3-27] | – | – | – | – | – | – | – | A (a value of 3 or above) | > 100 nM | > 100 nM | > 100 nM | 31.6 to 200 nM | < 0.1 nM | – |
| C=CC(=O)N1CC[C@H](Oc2nc(-c3ccc(O)cc3)cc3[nH]ncc23)C1 [Compound 1-8] | – | – | – | – | – | – | – | A (a value of 3 or above) | > 100 nM | > 100 nM | > 100 nM | 31.6 to 200 nM | 0.1 to 1 nM | – |
| C=CC(=O)N1CCC(C)(Oc2cc(-c3ccc(O)cc3)cc3[nH]ncc23)CC1 [Compound 6-3] | – | – | – | – | – | A (a value of 3 or above) | – | – | > 100 nM | 10 to 100 nM | > 100 nM | – | 0.1 to 1 nM | < 31.6 nM |
| CN1CCC[C@H]1/C=C/C(=O)N1CC(COc2cc(-c3ccc(O)cc3)cc3[nH]ncc23)C1 [Compound 3-115] | – | – | – | – | – | – | – | A (a value of 3 or above) | > 100 nM | 0.1 to 1 nM | > 100 nM | 31.6 to 200 nM | 0.1 to 1 nM | – |
| C=CC(=O)N1CC(Oc2cc(-c3ccc(O)cc3)cc3[nH]ncc23)(C(F)F)C1 [Compound 5-14] | E (a pKi value of 7 or below (Ki of 100 nM or above)) | E (a pKi value of 7 or below (Ki of 100 nM or above)) | E (a pKi value of 7 or below (Ki of 100 nM or above)) | – | A (a pKi value≥10 (Ki≤0.1 nM)) | – | A (a pIC50 value≥7.5 (IC50≤32 nM)) | A (a value of 3 or above) | – | – | – | – | – | – |
| CN(C)C/C=C/C(=O)N1CC(C)(COc2nc(-c3ccc(O)c(Cl)c3)cc3[nH]ncc23)C1 [Compound 3-95] | E (a pKi value of 7 or below (Ki of 100 nM or above)) | E (a pKi value of 7 or below (Ki of 100 nM or above)) | E (a pKi value of 7 or below (Ki of 100 nM or above)) | – | A (a pKi value≥10 (Ki≤0.1 nM)) | – | A (a pIC50 value≥7.5 (IC50≤32 nM)) | A (a value of 3 or above) | – | – | – | – | – | – |
| CN(C)C/C=C/C(=O)N1CCC(COc2cc(-c3ccc(O)cc3)cc3[nH]ncc23)CC1 [Compound 12-26] | – | – | – | – | – | B (a value of 2.3 to 3) | – | – | > 100 nM | 10 to 100 nM | > 100 nM | – | 0.1 to 1 nM | 200 to 1000 nM |
| CN(C)C/C=C/C(=O)N1CC(F)(COc2cc(-c3ccc(O)cc3)cc3[nH]ncc23)C1 [Compound 3-5] | D (a pKi value between 7 and 8 (Ki between 100 nM and 10 nM)) | D (a pKi value between 7 and 8 (Ki between 100 nM and 10 nM)) | E (a pKi value of 7 or below (Ki of 100 nM or above)) | – | B (a pKi value between 9 and 10 (Ki between 1 nM and 0.1 nM)) | – | A (a pIC50 value≥7.5 (IC50≤32 nM)) | B (a value of 2.3 to 3) | – | – | – | – | – | – |
| CN(C)C/C=C/C(=O)N1CC(F)(COc2cc(-c3ccc(O)c(F)c3)nc3[nH]ncc23)C1 [Compound 3-53] | – | – | – | – | – | – | – | A (a value of 3 or above) | > 100 nM | > 100 nM | > 100 nM | 31.6 to 200 nM | 0.1 to 1 nM | – |
| C=CC(=O)N1CC(COc2cc(-c3ccc(O)c(Cl)c3)cc3[nH]ncc23)C1 [Compound 3-3] | – | – | – | – | – | – | – | A (a value of 3 or above) | > 100 nM | > 100 nM | > 100 nM | < 31.6 nM | 0.1 to 1 nM | – |
| C=CC(=O)N1C[C@@H](Oc2cc(-c3ccc(O)cc3)cc3[nH]ncc23)CC[C@@H]1C [Compound 12-33] | – | – | – | – | – | A (a value of 3 or above) | – | – | > 100 nM | > 100 nM | > 100 nM | – | 0.1 to 1 nM | 31.6 to 200 nM |
| C=CC(=O)N1CC[C@@H](Nc2cc(-c3ccc(O)cc3)cc3[nH]ncc23)[C@H](C)C1 [Compound 12-17] | – | – | – | – | – | B (a value of 2.3 to 3) | – | – | 10 to 100 nM | 1 to 10 nM | > 100 nM | – | < 0.1 nM | < 31.6 nM |
| C=CC(=O)N1CCC(N(C)c2cc(-c3ccc(O)c(Cl)c3)cc3[nH]ncc23)CC1 [Compound 7-7] | E (a pKi value of 7 or below (Ki of 100 nM or above)) | D (a pKi value between 7 and 8 (Ki between 100 nM and 10 nM)) | E (a pKi value of 7 or below (Ki of 100 nM or above)) | B (a pIC50 value between 6.7 (included) and 7.5 (IC50 between 200 nM and 32 nM)) | B (a pKi value between 9 and 10 (Ki between 1 nM and 0.1 nM)) | A (a value of 3 or above) | – | – | – | – | – | – | – | – |
